Assay results as given in US20080207632A1, “PROTEIN KINASE INHIBITORS” (SUPERGEN, INC., priority 2006, published 2008).
pIC50: −log10 of the molar value.

What follows are compounds tested against T1, aurora-2 kinase (Homo sapiens, UniProt O14965) (assay: aurora-2 kinase inhibition assay (Kinase-Glo, ATP remaining)). Settings: Example 17; 3 μM ATP; read-out: IC50 (drug concentration at which 50% of aurora-2 kinase activity was inhibited).
T1 construct: purchased Upstate, Lake Placid, N.Y; host or cells: sf9 cells
T1 sequence (O14965 1-403): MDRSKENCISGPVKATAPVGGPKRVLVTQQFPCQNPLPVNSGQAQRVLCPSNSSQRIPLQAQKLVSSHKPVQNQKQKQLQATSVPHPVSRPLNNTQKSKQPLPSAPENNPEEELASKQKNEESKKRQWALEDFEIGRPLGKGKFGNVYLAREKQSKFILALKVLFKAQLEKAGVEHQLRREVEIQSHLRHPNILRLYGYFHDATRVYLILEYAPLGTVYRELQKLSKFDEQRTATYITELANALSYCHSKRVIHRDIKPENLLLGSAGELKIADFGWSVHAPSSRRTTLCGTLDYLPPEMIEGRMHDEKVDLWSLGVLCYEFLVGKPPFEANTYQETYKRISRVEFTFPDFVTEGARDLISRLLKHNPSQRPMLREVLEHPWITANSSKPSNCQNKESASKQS
Assay type: biochemical
Procedure: (§1) In this assay kinase activity was determined by quantifying the amount of ATP remaining in solution following a kinase reaction by measuring the light units (LU) produced by luciferase using a luminometer. Percent inhibition was determined for individual compounds by comparing luminometer readings of drug-treated reactions to controls containing no drug (DMSO control) and no Aurora-2 enzyme (ATP control) in the following equation: […]
(§2) In a 50 μl reaction, recombinant aurora-2 kinase produced in sf9 cells (Upstate, Lake Placid, N.Y.) was incubated at 30° C. for two hours with 62.5 μM Kemptide (Calbiochem, San Diego, Calif.), 3 μM ATP (Invitrogen, Carlsbad, Calif.) and kinase reaction buffer (40 mM Tris-HCl, 10 mM MgCl2 and 0.1 μg/μl bovine serum albumin (BSA)). This reaction was carried out in the presence of drug substances, which had been previously diluted to desired concentrations in DMSO. After incubation, 50 μl of Kinase-Glo® (Promega, Inc., Madison, Wis.) solution was added to each reaction mixture and allowed to equilibrate for 10 minutes at room temperature. Kinase-Glo solution contains luciferase enzyme and luciferin, which react with ATP to produce light. Kinase activity is determined by quantifying the amount of ATP remaining in solution following the kinase reaction by measuring the light units (LU) produced by luciferase using a luminometer (Thermo-Electron, Vantaa, Finland).
as §1, with “Briefly,” for “In this assay”
as §2, with “μg/Il” for “μg/μl”
as §1, with “Illustrative compounds 2-3, 2-5, 2-7, 2-4 and 2-9 were evaluated in an aurora-2 kinase inhibition assay. In” for “In”

SMILES | pIC50
COc1cc2[nH]c3ncnc(N4CCN(C(=S)Nc5ccc(S(=O)(=O)NC(C)=O)cc5)CC4)c3c2cc1OC [Compound 1-2, 4-(6,7-Dimethoxy-9H-pyrimido[4,5-b]indol-4-yl)-piperazine-1-carbothioic acid (4-acetylsulfamoyl-phenyl)-amide] | > 8.30
CC(=O)NS(=O)(=O)c1ccc(NC(=S)N2CCN(c3ncnc4[nH]c5cc(C(F)(F)F)c(Cl)cc5c34)CC2)cc1 [Compound 1-1, 4-(6-Chloro-7-trifluoromethyl-9H-pyrimido[4,5-b]indol-4-yl)-piperazine-1-carbothioic acid (4-acetylsulfamoyl-phenyl)-amide] | 7.31

Same assay, conditions: Example 20; unit from the table's spanning head; read-out: IC50 A2K

SMILES | pIC50
COc1cc2[nH]c3ncnc(N4CCN(C(=S)Nc5ccc(S(=O)(=O)NC(C)=O)cc5)CC4)c3c2cc1OC [Compound 1-2, 4-(6,7-Dimethoxy-9H-pyrimido[4,5-b]indol-4-yl)-piperazine-1-carbothioic acid (4-acetylsulfamoyl-phenyl)-amide] | ≥ 8.30
COc1cc2c(cc1O)[nH]c1ncnc(N3CCN(C(=S)Nc4ccc(S(=O)(=O)NC(C)=O)cc4)CC3)c12 [Compound 1-8] | 7.74
COc1cc2[nH]c3ncnc(N4CCN(C(=S)Nc5ccc(S(=O)(=O)N6CCOCC6)cc5)CC4)c3c2cc1OC [Compound 1-26] | 6.50
CC(=O)NS(=O)(=O)c1ccc(NC(=S)N2CCN(c3ncnc4[nH]c5ccc(Cl)cc5c34)CC2)cc1 [Compound 1-3, 4-(6-chloro-9H-pyrimido[4,5-b]indol-4-yl)-piperazine-1-carbothioic acid (4-acetylsulfamoyl-phenyl)-amide] | 7.13
CC(=O)NS(=O)(=O)c1ccc(NC(=S)N2CCN(c3ncnc4[nH]c5cc(F)ccc5c34)CC2)cc1 [Compound 1-4] | 7.64

Further lines, results first:

pIC50 | SMILES
6.13 | COc1cc2[nH]c3ncnc(N4CCN(C(=S)Nc5ccc(S(C)(=O)=O)cc5)CC4)c3c2cc1OC [Compound 1-115]
5.30 | COc1cc2[nH]c3ncnc(N4CCN(C(=S)Nc5ccc(NC(C)=O)cc5)CC4)c3c2cc1OC [Compound 1-42]
5.68 | COc1cc2[nH]c3ncnc(N4CCN(C(=S)Nc5ccc(NC(=O)C6CC6)cc5)CC4)c3c2cc1OC [Compound 1-34]
6.23 | COc1cc2[nH]c3ncnc(N4CCN(C(=S)Nc5ccc(S(N)(=O)=O)cc5)CC4)c3c2cc1OC [Compound 1-107]

Same assay, conditions: Example 54, Table 8; 3 μM ATP; read-out: Aurora-2 Inhibition, IC50

SMILES | pIC50
Cc1ccc(NS(=O)(=O)c2ccc(NC(=S)N3CCN(c4ncnc5[nH]c6cc(Cl)c(N7CCOCC7)cc6c45)CC3)cc2)cc1 [Compound 2-9, 4-(7-chloro-6-morpholino-9H-pyrimido[4,5-b]indol-4-yl)-N-(4-(N-tolylsulfamoyl)phenyl)piperazine-1-carbothioamide] | 6.08
COc1cc2[nH]c3ncnc(N4CCN(C(=S)Nc5ccc(S(=O)(=O)Nc6ccc(F)cc6)cc5)CC4)c3c2cc1OC [Compound 2-3, 4-(6,7-dimethoxy-9H-pyrimido[4,5-b]indol-4-yl)-N-(4-(N-(4-fluorophenyl)sulfamoyl)phenyl)piperazine-1-carbothioamide] | 6.96
COc1ccc2c(c1)[nH]c1ncnc(N3CCN(C(=S)Nc4ccc(S(=O)(=O)Nc5ccc(F)cc5)cc4)CC3)c12 [Compound 2-5, 4-(7-methoxy-9H-pyrimido[4,5-b]indol-4-yl)-N-(4-(N-(4-fluorophenyl)sulfamoyl)phenyl)piperazine-1-carbothioamide] | 6.24
